Measurements reported in US20230002361A1, “2H-INDAZOLE DERIVATIVES AND THEIR USE IN THE TREATMENT OF DISEASE” (BIOGEN MA INC., priority 2019, published 2023).
Structures can show the parent of a compound that is named as a salt.

Experiments:
IRAK4 = target: T1, IRAK4 (Homo sapiens, UniProt Q9NWZ3); assay: IRAK4 MSD Biochemical Assay (1 mM ATP, 2 h); conditions: room temperature, read-out: IRAK4 MSD Biochemical Assay (1 mM ATP, 2 h) IC50
T1 construct: with 0.1 nM IRAK4, 1.6 μM of biotinylated peptide substrate and 10 μM ATP
T1 sequence (Q9NWZ3 1-460): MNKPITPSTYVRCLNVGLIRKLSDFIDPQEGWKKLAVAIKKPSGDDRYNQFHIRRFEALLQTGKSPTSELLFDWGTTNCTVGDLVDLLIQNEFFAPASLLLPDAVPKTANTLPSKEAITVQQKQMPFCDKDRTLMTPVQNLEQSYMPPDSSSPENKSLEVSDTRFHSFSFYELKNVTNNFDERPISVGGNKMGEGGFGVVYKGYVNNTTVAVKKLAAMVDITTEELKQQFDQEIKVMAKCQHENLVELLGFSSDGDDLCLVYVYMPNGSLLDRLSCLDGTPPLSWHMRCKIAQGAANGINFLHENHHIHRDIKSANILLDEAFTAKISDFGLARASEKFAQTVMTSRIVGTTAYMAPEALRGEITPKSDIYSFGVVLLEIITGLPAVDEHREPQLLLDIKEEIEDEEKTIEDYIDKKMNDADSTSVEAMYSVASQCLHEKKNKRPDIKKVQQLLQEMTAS
Description: The 2-hour 10 μM ATP Biochemical Assay employs a MesoScale Detection (MSD) format.
The activity is quenched with 11 μl of 70 mM EDTA, pH 8.
To detect the phosphorylated biotinylated peptide substrate, 30 μl of the quenched reaction mixture is added to equivalent wells of a 384 well streptavidin coated MesoScale plate (Meso Scale Discovery #L21SA-1). After a 1 hour incubation of the plate for 1 hour at room temperature with gentle mixing, the plate wells are washed 3 times with 50 mM Tris, pH 7.5, 150 mM NaCl, 0.02% Tween-20.
A 25 μl volume of 1:500 anti-P-Threonine Rabbit polyclonal Antibody plus 1:500 Goat-anti-Rabbit Sulfo Tag Antibody (Meso Scale Discovery R32AB-1) in 50 mM Tris, pH 7.5, 150 mM NaCl, 0.02% Tween-20 plus 2% BSA is then added to each well. After a 1-hour incubation of the plate for 1 hour at room temperature with gentle mixing, the plate wells are washed, 3 times with 50 mM Tris, pH 7.5, 150 mM NaCl, 0.02% Tween-20. A 40 μl volume of 2×MSD Read Buffer (Meso Scale Discovery R92TC-1) is added to each well, and the plate is read immediately in an MSD Plate Reader (Meso Scale Discovery).
The 2-hour 1 mM ATP IRAK4 Biochemical assay was performed as described above, but with […] IRAK4 and 1 mM ATP.

MDR1 (P-gp) = target: T2, MDR1 (P-gp) (Homo sapiens, UniProt P08183); assay: MDR1-MDCK assay (efflux ratio); format: in vitro ADME; conditions: human, MDCK-MDR1, 1 μM compound, 120 minutes incubation; read-out: MDR1-MDCK Efflux Ratio; (B-A/A-B)
T2 construct: host or cells: MDCK cells
T2 sequence (P08183 whole entry): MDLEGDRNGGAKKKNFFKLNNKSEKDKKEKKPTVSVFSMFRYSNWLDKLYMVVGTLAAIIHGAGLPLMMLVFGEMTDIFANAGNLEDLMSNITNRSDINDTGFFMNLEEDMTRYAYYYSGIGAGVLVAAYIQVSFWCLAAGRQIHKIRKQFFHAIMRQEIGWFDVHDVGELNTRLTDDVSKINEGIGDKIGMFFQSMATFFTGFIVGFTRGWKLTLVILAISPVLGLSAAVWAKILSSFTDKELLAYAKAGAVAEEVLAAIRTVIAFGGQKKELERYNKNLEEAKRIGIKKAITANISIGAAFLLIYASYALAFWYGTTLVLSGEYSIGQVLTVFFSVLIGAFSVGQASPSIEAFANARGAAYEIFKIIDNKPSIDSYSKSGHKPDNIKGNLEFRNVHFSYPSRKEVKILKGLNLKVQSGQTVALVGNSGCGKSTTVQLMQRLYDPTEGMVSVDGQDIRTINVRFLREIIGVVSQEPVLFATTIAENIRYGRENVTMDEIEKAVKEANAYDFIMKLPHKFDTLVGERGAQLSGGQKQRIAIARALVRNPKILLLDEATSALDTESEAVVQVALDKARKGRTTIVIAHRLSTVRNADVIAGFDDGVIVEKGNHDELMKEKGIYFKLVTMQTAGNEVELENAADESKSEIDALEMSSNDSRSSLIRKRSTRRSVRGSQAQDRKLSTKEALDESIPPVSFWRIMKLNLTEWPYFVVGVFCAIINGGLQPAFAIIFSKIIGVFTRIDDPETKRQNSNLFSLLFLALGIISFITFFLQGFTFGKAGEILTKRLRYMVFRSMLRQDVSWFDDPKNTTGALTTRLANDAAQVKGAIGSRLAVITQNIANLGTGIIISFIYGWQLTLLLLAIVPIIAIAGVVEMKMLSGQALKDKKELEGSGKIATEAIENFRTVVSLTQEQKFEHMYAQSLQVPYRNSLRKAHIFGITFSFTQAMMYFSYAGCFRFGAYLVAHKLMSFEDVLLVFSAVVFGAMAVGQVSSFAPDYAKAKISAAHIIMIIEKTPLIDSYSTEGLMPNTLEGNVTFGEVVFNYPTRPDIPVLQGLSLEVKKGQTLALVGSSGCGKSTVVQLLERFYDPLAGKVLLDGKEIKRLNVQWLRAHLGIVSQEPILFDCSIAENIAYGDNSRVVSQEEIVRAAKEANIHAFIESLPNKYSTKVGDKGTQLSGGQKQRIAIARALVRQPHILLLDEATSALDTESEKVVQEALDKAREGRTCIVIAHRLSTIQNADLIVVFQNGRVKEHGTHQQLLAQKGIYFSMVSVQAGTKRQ
Description: • The assay makes use of human MDR1 transfected MDCK cells (NIH cell line in-licensed from Absorption Systems) • The compounds are tested at 1 μM concentration prepared in transport buffer (Hank's balanced salt solution with HEPES) • MDR1-MDCK cell are cultured for 7 days in 96 well transwell insert plates (Corning). Insert plates are washed before the assay and TEER (Trans epithelial electric resistance) is measured. • These plates are loaded with test compound solution 85 μL for A-B transport and 260 μL for B-A transport in the respective donor compartment.
Mass balance=100×((Vr×Cr^final)+(Vd×Cd^final))/(Vd×CE) • Where: • dCr/dt is the cumulative concentration in the receiver compartment versus time in μM s^−1 • Vr is the volume of the receiver compartment in cm^3 • Vd is the volume of the donor compartment in cm^3 • A is the area of the insert (0.143 cm^2 for 96-well insert) • CE is the estimated experimental concentration (Time=0) of the dosing solution • Cr^final is the concentration of the receiver at the end of the incubation period • Cd^final is the concentration of the donor at the end of the incubation period.

Row | SMILES | IC50 (IRAK4) | efflux ratio at 120 min, 1 μM (MDR1 (P-gp))
1 | COCCn1cc2cc(C(=O)Nc3cccc(C(F)F)n3)c(OC(C)C)cc2n1.Cl [Example 28, N-(6-(difluoromethyl)pyridin-2-yl)-6-isopropoxy-2-(2-methoxyethyl)-2H-indazole-5-carboxamide hydrochloride] | 4.4 nM | 0.4
2 | CC(C)Oc1cc2nn(C3COC3)cc2cc1C(=O)Nc1cnn2cccnc12 [Example 38, 6-Isopropoxy-2-(oxetan-3-yl)-N-(pyrazolo[1,5-a]pyrimidin-3-yl)-2H-indazole-5-carboxamide] | 11.2 nM | 2.3
3 | Cn1cccc(NC(=O)c2cc3cn(C45COC(C)(C4)C5)nc3cc2OC2CCC2)c1=O [Example 83, 6-Cyclobutoxy-N-(1-methyl-2-oxo-1,2-dihydropyridin-3-yl)-2-(1-methyl-2-oxabicyclo[2.1.1]hexan-4-yl)-2H-indazole-5-carboxamide trifluoroacetate] | 1.4 nM | 1.2
4 | CC(C)Oc1cc2nn(C34CCC(C)(CC3)OC4)cc2cc1C(=O)Nc1cccn(C)c1=O [Example 58, 6-Isopropoxy-N-(1-methyl-2-oxo-1,2-dihydropyridin-3-yl)-2-(1-methyl-2-oxabicyclo[2.2.2]octan-4-yl)-2H-indazole-5-carboxamide Trifluoroacetate] | 0.4 nM | 0.9
5 | COc1cc2nn(C3CCOCC3)cc2cc1C(=O)Nc1cccc(C(F)F)n1.Cl [Example 24, N-(6-(difluoromethyl)pyridin-2-yl)-6-methoxy-2-(tetrahydro-2H-pyran-4-yl)-2H-indazole-5-carboxamide Hydrochloride] | 6.3 nM | 0.7
6 | CC(C)Oc1cc2nn(C34CCC(C)(C3)OC4)cc2cc1C(=O)Nc1cccn(C)c1=O (centres unmarked) [Example 57, 6-Isopropoxy-N-(1-methyl-2-oxo-1,2-dihydropyridin-3-yl)-2-(1-methyl-2-oxabicyclo[2.2.1]heptan-4-yl)-2H-indazole-5-carboxamide] | 0.8 nM | 1.1
7 | COc1cccc(NC(=O)c2cc3cn(CC4CCOC4)nc3cn2)n1.O=C(O)C(F)(F)F (centres unmarked) [Example 7, N-(6-methoxypyridin-2-yl)-2-((tetrahydrofuran-3-yl)methyl)-2H-pyrazolo[3,4-c]pyridine-5-carboxamide Trifluoroacetate] | 1390 nM | 0.6
8 | CC(C)Oc1cc2nn(C3CCOCC3)cc2cc1C(=O)Nc1cccc2ccnn12 [Example 51, 6-Isopropoxy-N-(pyrazolo[1,5-a]pyridin-7-yl)-2-(tetrahydro-2H-pyran-4-yl)-2H-indazole-5-carboxamide] | 1.3 nM | 0.9
9 | COc1cccc(NC(=O)c2cc(OC)c3nn(CCC(C)(C)O)cc3c2)n1.Cl [Example 14, 2-(3-Hydroxy-3-methylbutyl)-7-methoxy-N-(6-methoxypyridin-2-yl)-2H-indazole-5-carboxamide hydrochloride] | 247 nM | 24.4
10 | CC(C)Oc1nc2nn(C[C@H]3CCOC3)cc2cc1C(=O)Nc1cccc2ccnn12 (single isomer, unassigned) [Example 53] | 1.5 nM | 1
11 | CC(C)Oc1cc2nn([C@@H]3CCOC3)cc2cc1C(=O)Nc1cccc(C(F)F)n1 (single isomer, unassigned) [Example 45] | 2.1 nM | 1
12 | CC(C)Oc1cc2nn(C34COC(C)(C3)C4)cc2cc1C(=O)Nc1cccn(C)c1=O.O=C(O)C(F)(F)F [Example 55, 6-Isopropoxy-N-(1-methyl-2-oxo-1,2-dihydropyridin-3-yl)-2-(1-methyl-2-oxabicyclo[2.1.1]hexan-4-yl)-2H-indazole-5-carboxamide Trifluoroacetate] |  | 1.2

Next, values leading:

Row | IC50 (IRAK4) | efflux ratio at 120 min, 1 μM (MDR1 (P-gp)) | SMILES
13 | 0.5 nM | 1.4 | CC(C)Oc1cc2nn([C@@]34CC[C@@](C)(C3)OC4)cc2cc1C(=O)Nc1cnn2cccnc12 (single isomer, unassigned) [Example 128]
14 | 1.3 nM | 1.4 | Cc1cnc2c(NC(=O)c3cc4cn(C56COC(C)(C5)C6)nc4cc3OC(C)C)cnn2c1 [Example 94, 6-Isopropoxy-2-(1-methyl-2-oxabicyclo[2.1.1]hexan-4-yl)-N-(6-methylpyrazolo[1,5-a]pyrimidin-3-yl)-2H-indazole-5-carboxamide]
15 | 0.3 nM | 1.2 | Cc1cnc2c(NC(=O)c3cc4cn(C56CCC(C)(C5)OC6)nc4cc3OC(C)C)cnn2c1 (centres unmarked) [Example 99, 6-Isopropoxy-2-(1-methyl-2-oxabicyclo[2.2.1]heptan-4-yl)-N-(6-methylpyrazolo[1,5-a]pyrimidin-3-yl)-2H-indazole-5-carboxamide trifluoroacetate]
16 | 1 nM | 0.6 | COc1cccc(NC(=O)c2cc3cn(C45COC(C)(C4)C5)nc3cc2OC(C)C)n1 [Example 89, 6-Isopropoxy-N-(6-methoxypyridin-2-yl)-2-(1-methyl-2-oxabicyclo[2.1.1]hexan-4-yl)-2H-indazole-5-carboxamide trifluoroacetae]
17 | 1.7 nM |  | Cn1ccc(NC(=O)c2cc3cn(C4CCCOC4)nc3nc2OC2CCC2)n1 (single isomer, unassigned) [Example 130]
18 | 1 nM | 2.3 | Cn1cccc(NC(=O)c2cc3cn(C[C@@H]4CCOC4)nc3nc2OC2CCCC2)c1=O (single isomer, unassigned) [Example 115]
19 | 1.5 nM | 4.8 | Cc1cnc2c(NC(=O)c3cc4cn(C[C@@H]5CCOC5)nc4nc3OC(C)C)cnn2c1 (single isomer, unassigned) [Example 105]
20 | 0.3 nM | 1 | CC(C)Oc1nc2nn(C3CCOCC3)cc2cc1C(=O)Nc1cccc(C(F)F)n1 [Example 63, N-(6-(difluoromethyl)pyridin-2-yl)-6-isopropoxy-2-(tetrahydro-2H-pyran-4-yl)-2H-pyrazolo[3,4-b]pyridine-5-carboxamide]
21 | 1.8 nM | 0.7 | CC(C)Oc1cc2nn(C3CCOCC3)cc2cc1C(=O)Nc1cccc2c1OCC2.Cl [Example 73, N-(2,3-dihydrobenzofuran-7-yl)-6-isopropoxy-2-(tetrahydro-2H-pyran-4-yl)-2H-indazole-5-carboxamide hydrochloride]
22 | 0.3 nM | 1 | CC(C)Oc1nc2nn(C[C@@H]3CCOC3)cc2cc1C(=O)Nc1cccc(C(F)F)n1 (single isomer, unassigned) [Example 107]
23 | 0.4 nM | 1 | CC(C)Oc1cc2nn([C@]34CC[C@](C)(C3)OC4)cc2cc1C(=O)Nc1cnn2cccnc12 (single isomer, unassigned) [Example 127]
24 | 1.2 nM |  | CC(C)Oc1cc2nn(C34CCC(C)(C3)OC4)cc2cc1C(=O)Nc1cnn2cc(F)cnc12 (centres unmarked) [Example 100, N-(6-fluoropyrazolo[1,5-a]pyrimidin-3-yl)-6-isopropoxy-2-(1-methyl-2-oxabicyclo[2.2.1]heptan-4-yl)-2H-indazole-5-carboxamide]
25 | 4.1 nM | 1.5 | CC(C)Oc1cc2nn(C34CCC(C)(C3)OC4)cc2cc1C(=O)Nc1ccn(C)n1 (centres unmarked) [Example 101, 6-Isopropoxy-N-(1-methyl-1H-pyrazol-3-yl)-2-(1-methyl-2-oxabicyclo[2.2.1]heptan-4-yl)-2H-indazole-5-carboxamide]
